Experimental findings from US12098144B2, “Piperazine indazole glucocorticoid receptor antagonists” (Corcept Therapeutics Incorporated, priority 2021, dated 2024) are described below.

For this test, the target named is T1, glucocorticoid receptor (Homo sapiens, UniProt P04150).
T1 construct: endogenous in cells; ATCC cat
T1 sequence (P04150 1-777): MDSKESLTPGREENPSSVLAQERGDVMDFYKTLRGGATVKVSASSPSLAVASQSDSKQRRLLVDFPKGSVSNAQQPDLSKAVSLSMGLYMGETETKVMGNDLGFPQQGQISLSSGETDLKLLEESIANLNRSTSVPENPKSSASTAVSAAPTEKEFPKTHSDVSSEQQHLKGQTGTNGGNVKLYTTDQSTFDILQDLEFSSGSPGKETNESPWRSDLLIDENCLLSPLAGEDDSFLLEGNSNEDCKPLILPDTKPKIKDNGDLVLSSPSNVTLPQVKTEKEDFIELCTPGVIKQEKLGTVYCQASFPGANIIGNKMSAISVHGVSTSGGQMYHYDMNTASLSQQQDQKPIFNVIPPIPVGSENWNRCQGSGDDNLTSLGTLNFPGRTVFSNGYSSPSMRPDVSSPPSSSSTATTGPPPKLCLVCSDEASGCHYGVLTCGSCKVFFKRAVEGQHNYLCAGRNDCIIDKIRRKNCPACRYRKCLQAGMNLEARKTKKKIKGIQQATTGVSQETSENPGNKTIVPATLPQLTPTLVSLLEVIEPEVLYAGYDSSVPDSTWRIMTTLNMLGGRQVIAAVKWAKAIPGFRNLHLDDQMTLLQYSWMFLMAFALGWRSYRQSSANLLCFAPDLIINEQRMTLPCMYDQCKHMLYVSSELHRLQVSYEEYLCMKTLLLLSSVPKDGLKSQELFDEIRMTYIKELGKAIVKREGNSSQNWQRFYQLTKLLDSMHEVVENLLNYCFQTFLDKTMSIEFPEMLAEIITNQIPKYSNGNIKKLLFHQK
Nature of the test: Hep G2 TAT Ki: inhibition of dexamethasone-induced TAT in HepG2 cells (96 well). In kind it is cell-based. The note with it: challenge of 100 nM dexamethasone, IC50 converted to Ki by Cheng and Prusoff equation. Here is the method:
Glucocorticoid mediated activation of TAT occurs by transactivation of glucocorticoid response elements in the TAT promoter by glucocorticoid receptor-agonist complex.
HepG2 cells were cultured using MEME media supplemented with 10% (v/v) foetal bovine serum; 2 mM L-glutamine and 1% (v/v) NEAA at 37° C., 5%/95% (v/v) CO2/air.
Compounds were serially half log diluted in 100% (v/v) dimethylsulphoxide from a 10 mM stock.
HepG2 cells were then lysed with 30 μl of cell lysis buffer containing a protease inhibitor cocktail for 15 minutes at 4° C. […] After 2 hours incubation at 37° C. the reaction was terminated by the addition of 15 μl of 10M aqueous potassium hydroxide solution, and the plates incubated for a further 30 minutes at 37° C.
[compound] and fitting the data to a 4 parameter logistic equation.
For `COCCn1cc(S(=O)(=O)N2CCN(CC(C)C)C(c3cc4cnn(-c5ccc(F)cc5)c4cc3C)C2)cn1` (single isomer, unassigned) [Example 47, 1-(4-fluorophenyl)-5-(1-isobutyl-4-((1-(2-methoxyethyl)-1H-pyrazol-4-yl)sulfonyl)piperazin-2-yl)-6-methyl-1H-indazole], the affinity, expressed as Ki, was 23 nM.

Turning to `CCn1ncc(S(=O)(=O)N2CCN(CC(C)C)C(c3cc4cnn(-c5ccc(F)cc5)c4cc3C)C2)n1` (single isomer, unassigned) [Example 48, 5-(4-((2-ethyl-2H-1,2,3-triazol-4-yl)sulfonyl)-1-isobutylpiperazin-2-yl)-1-(4-fluorophenyl)-6-methyl-1H-indazole], the affinity corresponds to a Ki of 23 nM.

Molecule `CCCS(=O)(=O)N1CCN(CC(C)C)C(c2cc3cnn(-c4ccc(F)cc4)c3cc2C)C1` (single isomer, unassigned) [Example 49, 1-(4-fluorophenyl)-5-(1-isobutyl-4-(propylsulfonyl)piperazin-2-yl)-6-methyl-1H-indazole] returned a Ki of 31 nM.

Consider `Cc1cc2c(cnn2-c2ccc(F)cc2)cc1C1CN(S(=O)(=O)N(C)C)CCN1CC(C)C` (single isomer, unassigned) [Example 50, 3-(1-(4-fluorophenyl)-6-methyl-1H-indazol-5-yl)-4-isobutyl-N,N-dimethylpiperazine-1-sulfonamide], for which the inhibition constant Ki stood at 64 nM.

`Cc1cc2c(cnn2-c2ccc(F)cc2)cc1C1CN(S(=O)(=O)CC2CC2)CCN1CC(C)C` (single isomer, unassigned) [Example 51, 5-(4-((cyclopropylmethyl)sulfonyl)-1-isobutylpiperazin-2-yl)-1-(4-fluorophenyl)-6-methyl-1H-indazole]: the inhibition constant Ki is 28 nM.

The molecule `Cc1cc2c(cnn2-c2ccc(F)cc2)cc1C1CN(S(=O)(=O)CC(C)C)CCN1CC(C)C` (single isomer, unassigned) [Example 52, 1-(4-fluorophenyl)-5-(1-isobutyl-4-(isobutylsulfonyl)piperazin-2-yl)-6-methyl-1H-indazole] gave an inhibition constant Ki of 24 nM.

On to `Cc1cc2c(cnn2-c2ccc(F)cc2)cc1C1CN(S(=O)(=O)N2CCOCC2)CCN1CC(C)C` (single isomer, unassigned) [Example 53, 4-((3-(1-(4-fluorophenyl)-6-methyl-1H-indazol-5-yl)-4-isobutylpiperazin-1-yl)sulfonyl)morpholine], for which the Ki was found to be 41 nM.

Consider `Cc1cc2c(cnn2-c2ccc(F)cc2)cc1C1CN(S(=O)(=O)c2cnn(C3CCOCC3)c2)CCN1CC(C)C` (single isomer, unassigned) [Example 54, 1-(4-fluorophenyl)-5-(1-isobutyl-4-((1-(tetrahydro-2H-pyran-4-yl)-1H-pyrazol-4-yl)sulfonyl)piperazin-2-yl)-6-methyl-1H-indazole], for which the inhibition constant Ki turned out to be 31 nM.

In turn, `CCn1cc(S(=O)(=O)N2CCN(CC(C)C)C(c3cc4cnn(-c5ccc(F)cc5)c4cc3C)C2)cn1` (single isomer, unassigned) [Example 55, 5-(4-((1-ethyl-1H-pyrazol-4-yl)sulfonyl)-1-isobutylpiperazin-2-yl)-1-(4-fluorophenyl)-6-methyl-1H-indazole] had an inhibition constant Ki of 19 nM.

Consider `Cc1cc2c(cnn2-c2ccc(F)cc2)cc1C1CN(S(=O)(=O)c2conc2C)CCN1CC(C)C` (single isomer, unassigned) [Example 56, 4-((3-(1-(4-fluorophenyl)-6-methyl-1H-indazol-5-yl)-4-isobutylpiperazin-1-yl)sulfonyl)-3-methylisoxazole], for which the affinity, expressed as Ki, was 65 nM.

Molecule `Cc1cc2c(cnn2-c2ccc(F)cc2)cc1C1CN(S(=O)(=O)c2cnn(C)c2C)CCN1CC(C)C` (single isomer, unassigned) [Example 57, 5-(4-((1,5-dimethyl-1H-pyrazol-4-yl)sulfonyl)-1-isobutylpiperazin-2-yl)-1-(4-fluorophenyl)-6-methyl-1H-indazole] came in with an inhibitory constant (Ki) of 19 nM.

In turn, `Cc1cc2c(cnn2-c2ccc(F)cc2)cc1C1CN(S(=O)(=O)c2cncs2)CCN1CC(C)C` (single isomer, unassigned) [Example 58, 5-((3-(1-(4-fluorophenyl)-6-methyl-1H-indazol-5-yl)-4-isobutylpiperazin-1-yl)sulfonyl)thiazole] returned an inhibition constant Ki of 15 nM.

The molecule `Cc1cc2c(cnn2-c2ccc(F)cc2)cc1C1CN(S(=O)(=O)c2cnn(C(F)F)c2)CCN1CC(C)C` (single isomer, unassigned) [Example 59, 5-(4-((1-(difluoromethyl)-1H-pyrazol-4-yl)sulfonyl)-1-isobutylpiperazin-2-yl)-1-(4-fluorophenyl)-6-methyl-1H-indazole] showed a Ki of 22 nM.

For `COCCS(=O)(=O)N1CCN(CC(C)C)C(c2cc3cnn(-c4ccc(F)cc4)c3cc2C)C1` (single isomer, unassigned) [Example 60, 1-(4-fluorophenyl)-5-(1-isobutyl-4-((2-methoxyethyl)sulfonyl)piperazin-2-yl)-6-methyl-1H-indazole], the Ki worked out at 28 nM.

For `Cc1cc2c(cnn2-c2ccc(F)cc2)cc1C1CN(S(=O)(=O)CC2CCOCC2)CCN1CC(C)C` (single isomer, unassigned) [Example 61, 1-(4-fluorophenyl)-5-(1-isobutyl-4-(((tetrahydro-2H-pyran-4-yl)methyl)sulfonyl)piperazin-2-yl)-6-methyl-1H-indazole], affinity was put at a Ki of 64 nM.

In turn, `Cc1cc2c(cnn2-c2ccc(F)cc2)cc1C1CN(S(=O)(=O)N(C)C2CC2)CCN1CC(C)C` (single isomer, unassigned) [Example 62, N-cyclopropyl-3-(1-(4-fluorophenyl)-6-methyl-1H-indazol-5-yl)-4-isobutyl-N-methylpiperazine-1-sulfonamide] showed an inhibition constant Ki of 44 nM.

The molecule `CCn1cc(S(=O)(=O)N2CCN(CC(C)C)C(c3cc4cnn(-c5ccc(F)cc5)c4cc3C)C2)nn1` (single isomer, unassigned) [Example 63, 5-(4-((1-ethyl-1H-1,2,3-triazol-4-yl)sulfonyl)-1-isobutylpiperazin-2-yl)-1-(4-fluorophenyl)-6-methyl-1H-indazole] returned a Ki of 20 nM.

As for `Cc1cc2c(cnn2-c2ccc(F)cc2)cc1C1CN(S(=O)(=O)c2cnn(C)c2)CCN1CC(C)C` (single isomer, unassigned) [Example 64, 1-(4-fluorophenyl)-5-(1-isobutyl-4-((1-methyl-1H-pyrazol-4-yl)sulfonyl)piperazin-2-yl)-6-methyl-1H-indazole], the inhibition constant Ki was 50 nM.

For `Cc1cc2c(cnn2-c2ccc(F)cc2)cc1C1CN(S(=O)(=O)c2cnn(C)n2)CCN1Cc1ccon1` (single isomer, unassigned) [Example 72, 3-((2-(1-(4-fluorophenyl)-6-methyl-1H-indazol-5-yl)-4-((2-methyl-2H-1,2,3-triazol-4-yl)sulfonyl)piperazin-1-yl)methyl)isoxazole], the affinity corresponds to a Ki of 330 nM.

For the molecule `Cc1cc2c(cnn2-c2ccc(F)cc2)cc1C1CN(S(=O)(=O)c2cnn(C)n2)CCN1CC1(F)CC1` (single isomer, unassigned) [Example 73, 5-(1-((1-fluorocyclopropyl)methyl)-4-((2-methyl-2H-1,2,3-triazol-4-yl)sulfonyl)piperazin-2-yl)-1-(4-fluorophenyl)-6-methyl-1H-indazole], the Ki turned out to be 170 nM.

In turn, `Cc1cc2c(cnn2-c2ccc(F)cc2)cc1C1CN(S(=O)(=O)c2cnn(C)n2)CCN1CC1CCC1` (single isomer, unassigned) [Example 74, 5-(1-(cyclobutylmethyl)-4-((2-methyl-2H-1,2,3-triazol-4-yl)sulfonyl)piperazin-2-yl)-1-(4-fluorophenyl)-6-methyl-1H-indazole] yielded a Ki of 160 nM.

For `Cc1cc2c(cnn2-c2ccc(F)cc2)cc1C1CN(S(=O)(=O)c2cnn(C)n2)CCN1CC1CC(F)(F)C1` (single isomer, unassigned) [Example 75, 5-(1-((3,3-difluorocyclobutyl)methyl)-4-((2-methyl-2H-1,2,3-triazol-4-yl)sulfonyl)piperazin-2-yl)-1-(4-fluorophenyl)-6-methyl-1H-indazole], the inhibitory constant (Ki) came to 140 nM.

For the molecule `Cc1cc2c(cnn2-c2ccc(F)cc2)cc1C1CN(S(=O)(=O)c2cnn(C)n2)CCN1CC1CC(F)(F)C1` (single isomer, unassigned) [Example 76, 5-(1-((3,3-difluorocyclobutyl)methyl)-4-((2-methyl-2H-1,2,3-triazol-4-yl)sulfonyl)piperazin-2-yl)-1-(4-fluorophenyl)-6-methyl-1H-indazole], the inhibitory constant (Ki) came out at 22 nM.

In general, Ki refers to the equilibrium dissociation constant of an inhibitor or competing ligand from its target.
